Results from the METLIN SMRT retention time set (Domingo-Almenara et al. 2019).

Assay: gradient 5% acetonitrile 3 min, to 50% in 2 min, to 85% in 15 min, held 3 min, 100 µL/min
Conditions: column: Zorbax Extend-C18 2.1 x 50 mm; eluents: water / acetonitrile, 0.1% formic acid
Procedure, shortened: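 In both positive and negative ionization mode, a quadrupole time-of-flight mass spectrometer coupled to HPLC analyzed pure standards run in mixtures of ~100 molecules. The Zorbax Extend-C18 column (2.1 × 50 mm, 1.8 μm) was operated at 100 μL/min with water and acetonitrile, each containing 0.1% formic acid. The dead volume was 40 μL and the dwell volume 900 μL. Retention time came from adduct peaks that were computationally picked and individually inspected by hand.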

Row | SMILES | RP-LC retention time
1 | O=C(c1ccc2c(c1)OCO2)N1CCC2(CC1)NC(=O)N(Cc1ccc(Cl)cc1)C2=O | 811 s
2 | CC(C)N1C(=O)C(C)(C(=O)Nc2ccc(F)c(F)c2)Oc2cccnc21 (stereo not given) | 1030 s
3 | CCc1noc(C2(NC(=O)c3nccc4ccccc34)CCCCC2)n1 | 1060 s
4 | O=C(NC1CC1)C1CCN(Cc2cc3ccccc3n2Cc2ccc(F)cc2)CC1 | 701 s
5 | COc1ccc(F)cc1-c1cc(N2CCN(C(=O)NCC(C)C)CC2)ncn1 | 645 s
6 | Cc1ccc(-c2ccc(N3CCN(c4ccccn4)CC3)nn2)cc1S(=O)(=O)N1CCCCCC1 | 716 s
7 | CCN(Cc1ccc(C)cc1)Cc1cc(=O)n2cc(Cl)ccc2n1 | 652 s
8 | CC1(C(=O)NC2CCCCCCC2)CN(S(C)(=O)=O)CC(=O)N1c1ccc(Cl)cc1 (stereo not given) | 952 s
9 | Cc1cc(=O)n(CC(=O)Nc2cccc(Cl)c2)c(N2CCc3ccccc3C2)n1 | 859 s
10 | COCc1c(C(=O)O)nnn1-c1ccc(C)c(F)c1 | 741 s
11 | Cc1ccc(N2CCn3c2nc2c3c(=O)n(CC(=O)O)c(=O)n2C)cc1C | 771 s
12 | COc1cc(C(=O)N2CCN(c3cc(C(C)C)n4cnnc4n3)CC2)cc(OC)c1OC | 613 s
13 | COc1cccc(-n2c(=O)c3sccc3n(Cc3nc(-c4ccc(C)c(C)c4)no3)c2=O)c1 | 1160 s
14 | COCc1c(C(=O)O)nnn1-c1ccc2c(c1)OCO2 | 648 s
15 | Cc1c(C(=O)NCC(C)C)cnn1-c1cc(-c2nc(C3CC3)no2)ccn1 | 969 s
16 | Cc1nc(-c2ccccc2)nc2c1CC(=O)N2Cc1cccs1 | 1070 s
17 | CCOC(=O)c1c(C)c(C(=O)OCC)n(C)c1C | 1080 s
18 | COCc1nc2cccnc2n1C1CCN(C(=O)Nc2ccc(OC)cc2OC)CC1 | 638 s
19 | CCOC(=O)c1c(C)n(-c2ccc(N(C)C)cc2)c2ccc(OCC(N)=O)cc12 | 938 s
20 | Cc1noc(-c2nn(C)c3c2CN(C(=O)COc2ccccc2)CC3)n1 | 729 s
21 | CCOC(=O)C1CCN(S(=O)(=O)c2cc3n(c2)CCCN(CC)C3=O)CC1 | 679 s
22 | COc1ccc(C2CC(=O)N(c3cccc(Br)c3)C(=O)C2)cc1OC | 876 s
23 | O=C(NC1CCCCCC1)C1CCCN(c2ccc(=O)n(-c3cccc(Cl)c3)n2)C1 (stereo not given) | 966 s

Row | SMILES | RP-LC retention time
24 | Cc1ccc(C)c(N2CCN(c3ccnc(SCC(=O)Nc4cccc(C)c4C)n3)CC2)c1 | 1000 s
25 | Nc1ncnc2c1c(-c1cnc3[nH]ccc3c1)nn2C1CCCC1 | 709 s
26 | O=C(NCc1ccc(F)c(Cl)c1)c1cn2ccccc2n1 | 723 s
27 | O=C(c1ccc(F)cc1)N1CCC(n2c(-c3ccco3)nc3cccnc32)C1 (stereo not given) | 689 s
28 | CCOC(=O)c1c(C)[nH]c(CCC(=O)NCCN2CCCCCC2)c1C | 621 s
29 | CCOc1ccc(NC(=O)Cn2nc3n(c2=O)CCCCC3)cc1 | 690 s
30 | CCc1ccc(S(=O)(=O)N2CC(F)(F)C[C@H]2CN2CCc3ccccc3C2)cc1 | 808 s
31 | CCCN1CCN(C(=O)c2ccc3ccnc(N4CCN(c5ccc(Cl)cc5)CC4)c3c2)CC1 | 643 s
32 | CCCC(=O)Nc1ccc(-c2nc(Cn3nc(C)cc3C)c(C)o2)cc1 | 818 s
33 | CCOC(=O)c1[nH]c(C)c(CCC(=O)N2CCCC(C(=O)NCc3ccc(N(C)C)cc3)C2)c1C (stereo not given) | 629 s
34 | Cc1cc(N(C)C)nc(N2CCN(S(=O)(=O)c3cc(C)c(C)cc3C)CC2)n1 | 793 s
35 | CCCn1c(=O)sc2cc(S(=O)(=O)N3CCC(C(=O)N(C)Cc4ccccc4)CC3)ccc21 | 985 s
36 | Cn1c(=O)c(SCC(=O)NCc2cccc(Br)c2)nc2cccnc21 | 806 s
37 | CCS(=O)(=O)c1nc2ccc(NS(C)(=O)=O)cc2s1 | 699 s
38 | O=C(Cn1cccc1-c1nc(-c2ccccc2)no1)N1CCc2ccccc21 | 1110 s
39 | COCCN1CCC2(CC1)CN(Cc1cc(OC)ccc1OC)Cc1ccccc1O2 | 597 s
40 | CC(C)(C)NS(=O)(=O)CCNC(=O)c1ccccc1 | 665 s
41 | O=C(c1nnc(-c2csc(S(=O)(=O)N3CCN(c4ccccn4)CC3)c2)o1)N1CCCCC1 | 709 s
42 | CC1CC(=O)N(CC(=O)Nc2cccc(C(F)(F)F)c2)c2ccccc2S1(=O)=O (stereo not given) | 875 s
43 | COc1cccc(CC2C(=O)Nc3ccc(Cl)cc32)c1OC (stereo not given) | 900 s
44 | Fc1cc(F)cc(-c2nc(-c3cccc(-c4ccn[nH]4)c3)no2)c1 | 1060 s
45 | Cc1cc(-c2c(C)sc(C)c2S(=O)(=O)Nc2ccc(C)c(Cl)c2)n[nH]1 | 1100 s
